The values below come from patent US8440660B2 (Santen Pharmaceutical Co., Ltd., priority 2006, dated 2013).

For the assay, the target named is T1, Glucocorticoid Receptor (GR) (Homo sapiens, UniProt P04150).
T1 construct: purchased Invitrogen P2816
T1 sequence (P04150 1-777): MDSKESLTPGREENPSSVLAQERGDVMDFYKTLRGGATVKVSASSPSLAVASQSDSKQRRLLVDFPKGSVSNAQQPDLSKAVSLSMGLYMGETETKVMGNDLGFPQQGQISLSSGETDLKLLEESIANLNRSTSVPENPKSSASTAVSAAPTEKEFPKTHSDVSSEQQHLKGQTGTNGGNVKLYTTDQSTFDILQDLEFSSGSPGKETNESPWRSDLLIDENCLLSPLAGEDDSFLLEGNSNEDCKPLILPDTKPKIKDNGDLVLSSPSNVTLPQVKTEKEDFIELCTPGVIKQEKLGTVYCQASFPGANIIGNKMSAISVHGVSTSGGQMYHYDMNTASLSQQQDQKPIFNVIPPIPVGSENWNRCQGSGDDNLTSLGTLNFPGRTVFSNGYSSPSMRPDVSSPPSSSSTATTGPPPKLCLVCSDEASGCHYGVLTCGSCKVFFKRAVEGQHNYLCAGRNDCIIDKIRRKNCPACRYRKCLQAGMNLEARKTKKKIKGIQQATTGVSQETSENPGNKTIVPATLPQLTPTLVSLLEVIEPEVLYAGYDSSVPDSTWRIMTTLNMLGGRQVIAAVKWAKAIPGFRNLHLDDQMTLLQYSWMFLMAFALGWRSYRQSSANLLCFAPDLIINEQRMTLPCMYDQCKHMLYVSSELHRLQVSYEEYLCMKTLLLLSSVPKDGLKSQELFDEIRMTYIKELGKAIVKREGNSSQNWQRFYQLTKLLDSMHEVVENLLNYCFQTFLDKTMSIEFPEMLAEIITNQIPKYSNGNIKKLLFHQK
The assay can be described thus: GR receptor competitor assay by fluorescence polarization (Invitrogen GR competitor assay kit, cat No. P2816). The note with it: 20 μM test compound solution, 10 μL per well plus 5 μL 4×GS1 and 5 μL 4×GR solution; recombinant human GR; 2 to 4 hours at room temperature; a ratio of 100% or more is indicated by 100%; read-out: GR Binding ratio (%). How it is done:
A detailed explanation of this matter will be described in the section of “Pharmacological Test” in Examples described below. In order to find the usefulness of the present compound as a pharmaceutical, a glucocorticoid receptor competitor assay was carried out by a fluorescence polarization method by using a glucocorticoid receptor competitor assay kit (manufactured by Invitrogen, cat No P2816) to study the glucocorticoid receptor binding activity of the present compound.
1. Evaluation Test for Binding Activity to Glucocorticoid Receptor (Hereinafter Referred to as “GR”)
In order to evaluate a binding activity to GR, a receptor competitor assay was carried out by a fluorescence polarization method. In the assay, a GR competitor assay kit (manufactured by Invitrogen, cat No. P2816) was used, and a procedure was carried out according to the protocol attached to the kit. Hereinafter, the specific method will be described.
(Preparation of Reagents)
GR screening buffer: A buffer containing 10 mM potassium phosphate (pH 7.4), 20 mM sodium molybdate (Na2MoO4), 0.1 mM ethylene diamine tetraacetic acid (EDTA), 5 mM dithiothreitol (DTT), 0.1 mM stabilizing peptide and 2% dimethylsulfoxide was prepared.
4×GS1 solution: Fluormone™ GS1, which is a fluorescent glucocorticoid ligand, was diluted with GR screening buffer, whereby a 4 nM solution was prepared.
4×GR solution: Recombinant human GR was diluted with GR screening buffer, whereby a 16 nM solution was prepared.
(Preparation of Test Compound Solution)
After a test compound was dissolved in dimethylsulfoxide, the resulting solution was diluted with GR screening buffer, whereby a 20 μM test compound solution was prepared.
(Test Method and Measurement Method)
1) The test compound solution was added in an amount of 10 μL into each well of a 384-well plate, and then, 4×GS1 solution and 4×GR solution were added in an amount of 5 μL into each well, respectively.
2) The plate was incubated in a dark place at room temperature for 2 to 4 hours.
3) By using a multimode plate reader, Analyst™ HT (manufactured by LJL Biosystems), fluorescence polarization of each well was measured. As the blank, a well containing GR screening buffer in place of the test compound and 4×GS1 solution was used.
4) The same procedure as that in the above 1) to 3) was carried out except that GR screening buffer was used in place of the test compound solution, and the obtained result was taken as the negative control.
5) The same procedure as that in the above 1) to 3) was carried out except that 2 mM dexamethasone was used in place of the test compound solution, and the obtained result was taken as the positive control.
(Calculation Equation of GR Binding Ratio)
A GR binding ratio (%) was calculated from the following equation. GR binding ratio (%)=100×[1−(fluorescence polarization of test compound solution−fluorescence polarization of positive control solution)/(fluorescence polarization of negative control solution−fluorescence polarization of positive control solution)] (Test Results and Discussion)
Regarding `COc1cc(OC(=O)c2ccncc2)ccc1-c1ccc2c(c1COc1cc(F)ccc1C)C(C)=CC(C)(C)N2` [Compound 1-43, 5-(5-Fluoro-2-methylphenoxymethyl)-6-[2-methoxy-4-(pyridin-4-ylcarbonyloxy)phenyl]-2,2,4-trimethyl-1,2-dihydroquinoline], the inhibition at 10 µM was 100%.

On to `COc1ccc(OC(=O)c2ccccn2)cc1-c1ccc2c(c1COc1cc(F)ccc1C)C(C)=CC(C)(C)N2` [Compound 1-44, 5-(5-Fluoro-2-methylphenoxymethyl)-6-[2-methoxy-5-(pyridin-2-ylcarbonyloxy)phenyl]-2,2,4-trimethyl-1,2-dihydroquinoline], for which the inhibition at 10 µM came out at 100%.

Take `COc1ccc(OC(=O)c2ccncc2)cc1-c1ccc2c(c1COc1cc(F)ccc1C)C(C)=CC(C)(C)N2` [Compound 1-45, 5-(5-Fluoro-2-methylphenoxymethyl)-6-[2-methoxy-5-(pyridin-4-ylcarbonyloxy)phenyl]-2,2,4-trimethyl-1,2-dihydroquinoline]: the inhibition at 10 µM turned out to be 95%.

On to `COc1cc(OC(=O)c2ccccc2OC(C)=O)ccc1-c1ccc2c(c1COc1cc(F)ccc1C)C(C)=CC(C)(C)N2` [Compound 1-50, 6-[4-(2-Acetoxybenzoyloxy)-2-methoxyphenyl]-5-(5-fluoro-2-methylphenoxymethyl)-2,2,4-trimethyl-1,2-dihydroquinoline], for which the inhibition at 10 µM was 97%.

As for `COc1cc(OC(=O)C2CCN(C(=O)OC(C)(C)C)CC2)ccc1-c1ccc2c(c1COc1cc(F)ccc1C)C(C)=CC(C)(C)N2` [Compound 1-51, 6-[4-(1-t-Butoxycarbonylpiperidin-4-ylcarbonyloxy)-2-methoxyphenyl]-5-(5-fluoro-2-methylphenoxymethyl)-2,2,4-trimethyl-1,2-dihydroquinoline], the inhibition at 10 µM amounted to 91%.

For `COc1cc(OC(=O)c2ccccc2SC)ccc1-c1ccc2c(c1COc1cc(F)ccc1C)C(C)=CC(C)(C)N2` [Compound 1-52], the inhibition at 10 µM turned out to be 96%.

For the compound `COc1cc(OC(=O)c2cn(C(=O)OC(C)(C)C)cn2)ccc1-c1ccc2c(c1COc1cc(F)ccc1C)C(C)=CC(C)(C)N2` [Compound 1-53, 6-[4-(1-t-Butoxycarbonylimidazol-4-ylcarbonyloxy)-2-methoxyphenyl]-5-(5-fluoro-2-methylphenoxymethyl)-2,2,4-trimethyl-1,2-dihydroquinoline], the inhibition at 10 µM is 100%.

As for `COc1cc(OC(=O)c2cscn2)ccc1-c1ccc2c(c1COc1cc(F)ccc1C)C(C)=CC(C)(C)N2` [Compound 1-54, 5-(5-Fluoro-2-methylphenoxymethyl)-6-[2-methoxy-4-(thiazol-4-ylcarbonyloxy)phenyl]-2,2,4-trimethyl-1,2-dihydroquinoline], the inhibition at 10 µM came to 100%.

With `COc1cc(OC(=O)c2cncs2)ccc1-c1ccc2c(c1COc1cc(F)ccc1C)C(C)=CC(C)(C)N2` [Compound 1-55, 5-(5-Fluoro-2-methylphenoxymethyl)-6-[2-methoxy-4-(thiazol-5-ylcarbonyloxy)phenyl]-2,2,4-trimethyl-1,2-dihydroquinoline], the inhibition at 10 µM stood at 100%.

Turning to `COc1cc(OC(=O)c2cocn2)ccc1-c1ccc2c(c1COc1cc(F)ccc1C)C(C)=CC(C)(C)N2` [Compound 1-56, 5-(5-Fluoro-2-methylphenoxymethyl)-6-[2-methoxy-4-(oxazol-4-ylcarbonyloxy)phenyl]-2,2,4-trimethyl-1,2-dihydroquinoline], the inhibition at 10 µM amounted to 100%.

In the case of `COc1cc(OC(=O)c2cccc(C(C)=O)c2)ccc1-c1ccc2c(c1COc1cc(F)ccc1C)C(C)=CC(C)(C)N2` [Compound 1-58, 6-[4-(3-Acetylbenzoyloxy)-2-methoxyphenyl]-5-(5-fluoro-2-methylphenoxymethyl)-2,2,4-trimethyl-1,2-dihydroquinoline], the inhibition at 10 µM came to 100%.

On to `COc1cc(OC(=O)c2ccccc2F)ccc1-c1ccc2c(c1COc1cc(F)ccc1C)C(C)=CC(C)(C)N2` [Compound 1-59, 6-[4-(2-Fluorobenzoyloxy)-2-methoxyphenyl]-5-(5-fluoro-2-methylphenoxymethyl)-2,2,4-trimethyl-1,2-dihydroquinoline], for which the inhibition at 10 µM worked out at 100%.

On to `COc1cc(OC(=O)c2cccc(F)c2)ccc1-c1ccc2c(c1COc1cc(F)ccc1C)C(C)=CC(C)(C)N2` [Compound 1-60, 6-[4-(3-Fluorobenzoyloxy)-2-methoxyphenyl]-5-(5-fluoro-2-methylphenoxymethyl)-2,2,4-trimethyl-1,2-dihydroquinoline], for which the inhibition at 10 µM stood at 100%.

In the case of `COc1cc(OC(=O)c2ccc(C)o2)ccc1-c1ccc2c(c1COc1cc(F)ccc1C)C(C)=CC(C)(C)N2` [Compound 1-62, 5-(5-Fluoro-2-methylphenoxymethyl)-6-[2-methoxy-4-(5-methylfuran-2-ylcarbonyloxy)phenyl]-2,2,4-trimethyl-1,2-dihydroquinoline], the inhibition at 10 µM came out at 100%.

Consider `COc1cc(OC(=O)c2cccnc2C)ccc1-c1ccc2c(c1COc1cc(F)ccc1C)C(C)=CC(C)(C)N2` [Compound 1-63, 5-(5-Fluoro-2-methylphenoxymethyl)-6-[2-methoxy-4-(2-methylpyridin-3-ylcarbonyloxy)phenyl]-2,2,4-trimethyl-1,2-dihydroquinoline], for which the inhibition at 10 µM stood at 100%.

As for `COc1cc(OC(=O)Cc2cccnc2)ccc1-c1ccc2c(c1COc1cc(F)ccc1C)C(C)=CC(C)(C)N2` [Compound 1-64, 5-(5-Fluoro-2-methylphenoxymethyl)-6-[2-methoxy-4-(pyridin-3-ylacetoxy)phenyl]-2,2,4-trimethyl-1,2-dihydroquinoline], the inhibition at 10 µM turned out to be 100%.

`COc1cc(OC(=O)c2ccc(C(C)=O)cc2)ccc1-c1ccc2c(c1COc1cc(F)ccc1C)C(C)=CC(C)(C)N2` [Compound 1-67, 6-[4-(4-Acetylbenzoyloxy)-2-methoxyphenyl]-5-(5-fluoro-2-methylphenoxymethyl)-2,2,4-trimethyl-1,2-dihydroquinoline]: the inhibition at 10 µM came out at 100%.

As to `COC(=O)c1cccc(C(=O)Oc2ccc(-c3ccc4c(c3COc3cc(F)ccc3C)C(C)=CC(C)(C)N4)c(OC)c2)c1` [Compound 1-68, 5-(5-Fluoro-2-methylphenoxymethyl)-6-[2-methoxy-4-(3-methoxycarbonylbenzoyloxy)phenyl]-2,2,4-trimethyl-1,2-dihydroquinoline], the inhibition at 10 µM stood at 100%.

Regarding `COc1cc(OC(=O)c2ccc(C)nc2)ccc1-c1ccc2c(c1COc1cc(F)ccc1C)C(C)=CC(C)(C)N2` [Compound 1-69, 5-(5-Fluoro-2-methylphenoxymethyl)-6-[2-methoxy-4-(6-methylpyridin-3-ylcarbonyloxy)phenyl]-2,2,4-trimethyl-1,2-dihydroquinoline], the inhibition at 10 µM worked out at 100%.

For `COc1cc(OC(=O)c2cnccc2C)ccc1-c1ccc2c(c1COc1cc(F)ccc1C)C(C)=CC(C)(C)N2` [Compound 1-70, 5-(5-Fluoro-2-methylphenoxymethyl)-6-[2-methoxy-4-(4-methylpyridin-3-ylcarbonyloxy)phenyl]-2,2,4-trimethyl-1,2-dihydroquinoline], the inhibition at 10 µM amounted to 100%.
